Measurements taken from patent US8524702B2, “Substituted benzoazepines as toll-like receptor modulators” (VentiRx Pharmaceuticals, Inc., priority 2009, dated 2013).

Assays:
Assay type in all cases: cell-based
TLR8 [1] = target: T1, TLR8 (Homo sapiens, UniProt Q9NR97); test: PBMC assay for TLR8 (TNFα in supernatants by ELISA); design: Peripheral blood mononuclear cells (PBMCs) from human blood were isolated; endogenous in cells; host or cells: human PBMCs; conditions: human PBMCs incubated with compound overnight, MC50 = concentration at which 50% of the maximum induction is seen
T1 sequence (Q9NR97 27-1041): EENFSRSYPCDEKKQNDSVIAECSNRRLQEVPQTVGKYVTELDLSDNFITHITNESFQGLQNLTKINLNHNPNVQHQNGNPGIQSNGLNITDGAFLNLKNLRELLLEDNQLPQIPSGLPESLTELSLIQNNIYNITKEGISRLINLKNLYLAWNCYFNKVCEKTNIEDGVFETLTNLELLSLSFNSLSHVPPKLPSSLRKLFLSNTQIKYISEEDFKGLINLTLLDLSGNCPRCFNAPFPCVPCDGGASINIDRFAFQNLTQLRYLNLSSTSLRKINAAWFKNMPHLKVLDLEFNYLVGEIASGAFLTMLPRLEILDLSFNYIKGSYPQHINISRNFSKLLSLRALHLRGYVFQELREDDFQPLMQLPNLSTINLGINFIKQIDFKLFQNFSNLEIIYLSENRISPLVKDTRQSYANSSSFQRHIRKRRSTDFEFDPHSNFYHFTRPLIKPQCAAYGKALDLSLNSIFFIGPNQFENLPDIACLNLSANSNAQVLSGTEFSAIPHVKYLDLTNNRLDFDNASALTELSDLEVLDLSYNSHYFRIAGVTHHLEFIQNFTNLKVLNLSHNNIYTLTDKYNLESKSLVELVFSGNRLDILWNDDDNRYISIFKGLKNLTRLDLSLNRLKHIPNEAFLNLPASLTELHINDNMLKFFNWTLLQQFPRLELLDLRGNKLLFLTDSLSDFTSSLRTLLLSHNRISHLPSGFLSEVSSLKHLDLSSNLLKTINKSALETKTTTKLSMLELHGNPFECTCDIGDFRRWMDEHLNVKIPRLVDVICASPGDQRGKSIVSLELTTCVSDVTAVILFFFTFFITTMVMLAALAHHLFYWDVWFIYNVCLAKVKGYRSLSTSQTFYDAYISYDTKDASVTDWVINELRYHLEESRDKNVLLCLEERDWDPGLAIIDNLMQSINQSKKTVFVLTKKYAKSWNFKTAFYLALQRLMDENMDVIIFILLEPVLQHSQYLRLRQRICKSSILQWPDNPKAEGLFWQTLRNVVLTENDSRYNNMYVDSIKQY
In short: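 Human PBMCs were incubated overnight with compound. TNFα (TLR8) and IFNα (TLR7) in supernatants were quantified by ELISA. MC50 values are reported in order-of-magnitude bins (nM).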

TLR7 [2] = target: T2, TLR7 (Homo sapiens, UniProt Q9NYK1); test: TLR7 activity, MC50 values (procedure only by reference to Gorden et al. and Zhu et al.); conditions: assay format not given
T2 sequence (Q9NYK1 27-1049): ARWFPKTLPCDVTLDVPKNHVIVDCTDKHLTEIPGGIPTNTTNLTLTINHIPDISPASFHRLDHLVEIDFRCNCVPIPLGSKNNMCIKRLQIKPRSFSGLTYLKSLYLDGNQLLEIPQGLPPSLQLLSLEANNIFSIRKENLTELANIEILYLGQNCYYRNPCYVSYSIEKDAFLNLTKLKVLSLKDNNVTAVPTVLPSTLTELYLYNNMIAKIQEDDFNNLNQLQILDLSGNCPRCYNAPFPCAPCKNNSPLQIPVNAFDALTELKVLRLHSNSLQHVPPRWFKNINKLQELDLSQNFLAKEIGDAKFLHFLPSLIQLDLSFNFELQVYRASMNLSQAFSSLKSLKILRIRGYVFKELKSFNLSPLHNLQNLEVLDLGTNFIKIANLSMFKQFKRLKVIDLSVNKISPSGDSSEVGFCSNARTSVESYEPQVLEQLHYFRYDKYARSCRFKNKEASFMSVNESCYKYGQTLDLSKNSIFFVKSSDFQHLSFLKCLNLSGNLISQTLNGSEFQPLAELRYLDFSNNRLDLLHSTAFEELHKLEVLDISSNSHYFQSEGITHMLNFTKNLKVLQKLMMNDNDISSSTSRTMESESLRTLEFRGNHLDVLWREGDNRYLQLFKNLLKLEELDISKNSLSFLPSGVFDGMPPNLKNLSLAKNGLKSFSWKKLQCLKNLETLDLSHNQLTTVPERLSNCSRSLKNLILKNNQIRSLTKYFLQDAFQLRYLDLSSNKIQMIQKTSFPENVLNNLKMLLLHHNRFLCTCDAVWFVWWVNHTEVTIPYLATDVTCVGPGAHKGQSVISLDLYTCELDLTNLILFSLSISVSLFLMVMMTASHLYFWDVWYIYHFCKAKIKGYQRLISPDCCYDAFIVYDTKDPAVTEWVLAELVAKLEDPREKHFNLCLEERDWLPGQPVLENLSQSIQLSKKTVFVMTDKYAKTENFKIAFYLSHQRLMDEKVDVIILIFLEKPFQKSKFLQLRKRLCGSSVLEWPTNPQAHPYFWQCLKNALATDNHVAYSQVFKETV
Source text: (§1) Activity of the compounds can be assessed according to procedures described in, e.g., Gorden et al., Journal of Immunology 177, pp. 8164-8170 (2006) and Zhu et al., Molecular Immunology, vol. 45 (11), pp. 3238-3242 (2008).
MC50 values for TLR7 activity are, for example, as shown below: […]

TLR7 [3] = target: T2, TLR7; test: PBMC assay for TLR7 (IFNα in supernatants by ELISA); design: Peripheral blood mononuclear cells (PBMCs) from human blood were isolated; endogenous in cells; host or cells: human PBMCs; conditions: human PBMCs incubated with compound overnight, MC50 = concentration at which 50% of the maximum induction is seen
Procedure: Peripheral blood mononuclear cells (PBMCs) from human blood were isolated using BD Vacutainer Cell Preparation Tubes with sodium citrate. Cells were incubated with compound overnight. TLR8 activity was assayed by measuring the amount of TNFα in supernatants by ELISA. TLR7 activity was assayed by measuring the amount of IFNα in supernatants by ELISA (R&D Systems). […] The results of this assay are shown below in Tables 2 and 3.
MC50 numbers are represented as factors of ten, for example, + indicates an MC50 value of ×10^4, or a value in the tens of thousands of nanomolar (nM range); ++ indicates an MC50 value of ×10^3, or a value in the thousands; +++ indicates an MC50 value of ×10^2, or a value in the hundreds; and ++++ indicates an MC50 value of ×10^1 or 10°, or a value in the tens or ones.

TLR8 [4] = target: T1, TLR8; test: TLR8 activity, MC50 values (procedure only by reference to Gorden et al. and Zhu et al.); conditions: assay format not given
Source text: as §1
MC50 values for TLR8 activity are, for example, as shown below: […]

SMILES	EC50 (TLR8 [1])	EC50 (TLR7 [2])	EC50 (TLR7 [3])	EC50 (TLR8 [4])
CCCN(CC(N)=O)C(=O)C1=Cc2ccc(-c3ccc(C(=O)N4CCCC4)cc3)cc2N=C(N)C1 [Compound 178, (1E,4E)-2-amino-N-(2-amino-2-oxoethyl)-N-propyl-8-(4-(pyrrolidine-1-carbonyl)phenyl)-3H-benzo[b]azepine-4-carboxamide]	100 to 1000 nM	767 nM	100 to 1000 nM	–
CCCN(CCC)C(=O)C1=Cc2ccc(-c3ccc(C(=O)N4CC[C@@H](O)C4)cc3)cc2N=C(N)C1 [Compound 127, (1E,4E)-2-amino-8-(4-((R)-3-hydroxypyrrolidine-1-carbonyl)phenyl)-N,N-dipropyl-3H-benzo[b]azepine-4-carboxamide]	1 to 100 nM	–	1000 to 10000 nM	4 nM
CCCN(CCC)C(=O)C1=Cc2ccc(-c3cncnc3)cc2N=C(N)C1 [Compound 135, (1E,4E)-2-amino-N,N-dipropyl-8-(pyrimidin-5-yl)-3H-benzo[b]azepine-4-carboxamide]	1 to 100 nM	744 nM	100 to 1000 nM	–
CCCN(CCCO)C(=O)C1=Cc2ccc(-c3ccc(C(=O)OCC)cc3)cc2N=C(N)C1 [Compound 190, Ethyl 4-((1E,4E)-2-amino-4-((3-hydroxypropyl)(propyl)carbamoyl)-3H-benzo[b]azepin-8-yl)benzoate]	100 to 1000 nM	–	10000 to 100000 nM	196 nM
CCCN(CCC)C(=O)C1=Cc2ccc(-c3ccc(C(=O)N(C)C)cc3)cc2N=C(N)C1 [Compound 124, (1E,4E)-2-amino-8-(4-(dimethylcarbamoyl)phenyl)-N,N-dipropyl-3H-benzo[b]azepine-4-carboxamide]	100 to 1000 nM	–	1000 to 10000 nM	104 nM
CCCN(C[C@@H](C)O)C(=O)C1=Cc2ccc(-c3ccc(C(=O)N4CCCC4)cc3)cc2N=C(N)C1 (single isomer, unassigned) [Compound 106]	1 to 100 nM	–	1000 to 10000 nM	10 nM
CCOC(=O)C1=Cc2ccc(-c3ccncc3)cc2N=C(N)C1 [Compound 143, (1E,4E)-ethyl 2-amino-8-(pyridin-4-yl)-3H-benzo[b]azepine-4-carboxylate]	1 to 100 nM	–	–	45 nM
